Results published in PubChem BioAssay (NCI).
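Where inhibition never reached the appropriate level, the endpoint shown equals the highest concentration tested. Otherwise, values were interpolated linearly from a five-concentration, 48-hour dose response in 96-well plates. GI50: concentration for 50% inhibition of growth. TGI: concentration producing complete growth inhibition.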

Tests used:
Experiment in all cases: NCI-60 cell line screen, 48 h
PC-3 prostate = test system: PC-3 prostate
CAKI-1 renal = test system: CAKI-1 renal
OVCAR-8 ovarian = test system: OVCAR-8 ovarian
HOP-92 NSCLC = test system: HOP-92 NSCLC
SF-268 CNS = test system: SF-268 CNS
MALME-3M melanoma = test system: MALME-3M melanoma
HS 578T breast = test system: HS 578T breast
OVCAR-3 ovarian = test system: OVCAR-3 ovarian
HCT-116 colon = test system: HCT-116 colon
SW-620 colon = test system: SW-620 colon
CCRF-CEM leukemia = test system: CCRF-CEM leukemia
SK-MEL-28 melanoma = test system: SK-MEL-28 melanoma
KM12 colon = test system: KM12 colon
HOP-62 NSCLC = test system: HOP-62 NSCLC
K-562 leukemia = test system: K-562 leukemia
HT29 colon = test system: HT29 colon
BT-549 breast = test system: BT-549 breast
UACC-62 melanoma = test system: UACC-62 melanoma
NCI-H460 lung = test system: NCI-H460 lung
SN12C renal = test system: SN12C renal
T-47D breast = test system: T-47D breast
SNB-19 CNS = test system: SNB-19 CNS
IGROV1 ovarian = test system: IGROV1 ovarian
ACHN renal = test system: ACHN renal
SK-OV-3 ovarian = test system: SK-OV-3 ovarian
HL-60(TB) leukemia = test system: HL-60(TB) leukemia
MCF7 breast = test system: MCF7 breast
UO-31 renal = test system: UO-31 renal
NCI-H522 lung = test system: NCI-H522 lung
786-0 renal = test system: 786-0 renal
NCI-H23 lung = test system: NCI-H23 lung
MOLT-4 leukemia = test system: MOLT-4 leukemia
TK-10 renal = test system: TK-10 renal
SK-MEL-5 melanoma = test system: SK-MEL-5 melanoma
HCT-15 colon = test system: HCT-15 colon
NCI/ADR-RES ovarian = test system: NCI/ADR-RES ovarian
LOX IMVI melanoma = test system: LOX IMVI melanoma
DU-145 prostate = test system: DU-145 prostate
SF-295 CNS = test system: SF-295 CNS
SR leukemia = test system: SR leukemia
UACC-257 melanoma = test system: UACC-257 melanoma
RXF 393 renal = test system: RXF 393 renal
U251 CNS = test system: U251 CNS
SNB-75 CNS = test system: SNB-75 CNS
RPMI-8226 leukemia = test system: RPMI-8226 leukemia
EKVX NSCLC = test system: EKVX NSCLC
SK-MEL-2 melanoma = test system: SK-MEL-2 melanoma
M14 melanoma = test system: M14 melanoma
COLO 205 colon = test system: COLO 205 colon
A549 NSCLC = test system: A549 NSCLC
HCC-2998 colon = test system: HCC-2998 colon
OVCAR-4 ovarian = test system: OVCAR-4 ovarian
MDA-MB-435 = test system: MDA-MB-435
NCI-H226 lung = test system: NCI-H226 lung
MDA-MB-231 breast = test system: MDA-MB-231 breast
OVCAR-5 ovarian = test system: OVCAR-5 ovarian
SF-539 CNS = test system: SF-539 CNS
A498 renal = test system: A498 renal

SMILES: Fc1ccc(-c2c(-c3ccncc3)nc3n2CCS3)cc1
- GI50 (PC-3 prostate): > 25 µM
- TGI (PC-3 prostate): > 25 µM
- GI50 (CAKI-1 renal): > 25 µM
- TGI (CAKI-1 renal): > 25 µM
- GI50 (OVCAR-8 ovarian): > 25 µM
- TGI (OVCAR-8 ovarian): > 25 µM
- GI50 (HOP-92 NSCLC): > 16.9 µM
- TGI (HOP-92 NSCLC): > 25 µM
- GI50 (SF-268 CNS): > 25 µM
- TGI (SF-268 CNS): > 25 µM
- GI50 (MALME-3M melanoma): > 25 µM
- TGI (MALME-3M melanoma): > 25 µM
- GI50 (HS 578T breast): > 25 µM
- TGI (HS 578T breast): > 25 µM
- GI50 (OVCAR-3 ovarian): > 25 µM
- TGI (OVCAR-3 ovarian): > 25 µM
- GI50 (HCT-116 colon): > 25 µM
- TGI (HCT-116 colon): > 25 µM
- GI50 (SW-620 colon): > 25 µM
- TGI (SW-620 colon): > 25 µM
- GI50 (CCRF-CEM leukemia): > 25 µM
- TGI (CCRF-CEM leukemia): > 25 µM
- GI50 (SK-MEL-28 melanoma): > 25 µM
- TGI (SK-MEL-28 melanoma): > 25 µM
- GI50 (KM12 colon): > 25 µM
- TGI (KM12 colon): > 25 µM
- GI50 (HOP-62 NSCLC): > 25 µM
- TGI (HOP-62 NSCLC): > 25 µM
- GI50 (K-562 leukemia): > 25 µM
- TGI (K-562 leukemia): > 25 µM
- GI50 (HT29 colon): > 25 µM
- TGI (HT29 colon): > 25 µM
- GI50 (BT-549 breast): > 25 µM
- TGI (BT-549 breast): > 25 µM
- GI50 (UACC-62 melanoma): > 25 µM
- TGI (UACC-62 melanoma): > 25 µM
- GI50 (NCI-H460 lung): > 25 µM
- TGI (NCI-H460 lung): > 25 µM
- GI50 (SN12C renal): > 25 µM
- TGI (SN12C renal): > 25 µM
- GI50 (T-47D breast): > 25 µM
- TGI (T-47D breast): > 25 µM
- GI50 (SNB-19 CNS): > 25 µM
- TGI (SNB-19 CNS): > 25 µM
- GI50 (IGROV1 ovarian): > 25 µM
- TGI (IGROV1 ovarian): > 25 µM
- GI50 (ACHN renal): > 25 µM
- TGI (ACHN renal): > 25 µM
- GI50 (SK-OV-3 ovarian): > 25 µM
- TGI (SK-OV-3 ovarian): > 25 µM
- GI50 (HL-60(TB) leukemia): > 25 µM
- TGI (HL-60(TB) leukemia): > 25 µM
- GI50 (MCF7 breast): > 25 µM
- TGI (MCF7 breast): > 25 µM
- GI50 (UO-31 renal): > 25 µM
- TGI (UO-31 renal): > 25 µM
- GI50 (NCI-H522 lung): > 25 µM
- TGI (NCI-H522 lung): > 25 µM
- GI50 (786-0 renal): > 25 µM
- TGI (786-0 renal): > 25 µM
- GI50 (NCI-H23 lung): > 25 µM
- TGI (NCI-H23 lung): > 25 µM
- GI50 (MOLT-4 leukemia): > 25 µM
- TGI (MOLT-4 leukemia): > 25 µM
- GI50 (TK-10 renal): > 25 µM
- TGI (TK-10 renal): > 25 µM
- GI50 (SK-MEL-5 melanoma): > 25 µM
- TGI (SK-MEL-5 melanoma): > 25 µM
- GI50 (HCT-15 colon): > 25 µM
- TGI (HCT-15 colon): > 25 µM
- GI50 (NCI/ADR-RES ovarian): > 25 µM
- TGI (NCI/ADR-RES ovarian): > 25 µM
- GI50 (LOX IMVI melanoma): > 25 µM
- TGI (LOX IMVI melanoma): > 25 µM
- GI50 (DU-145 prostate): > 25 µM
- TGI (DU-145 prostate): > 25 µM
- GI50 (SF-295 CNS): > 25 µM
- TGI (SF-295 CNS): > 25 µM
- GI50 (SR leukemia): > 25 µM
- TGI (SR leukemia): > 25 µM
- GI50 (UACC-257 melanoma): > 25 µM
- TGI (UACC-257 melanoma): > 25 µM
- GI50 (RXF 393 renal): > 12.9 µM
- TGI (RXF 393 renal): > 25 µM
- GI50 (U251 CNS): > 25 µM
- TGI (U251 CNS): > 25 µM
- GI50 (SNB-75 CNS): > 25 µM
- TGI (SNB-75 CNS): > 25 µM
- GI50 (RPMI-8226 leukemia): > 25 µM
- TGI (RPMI-8226 leukemia): > 25 µM
- GI50 (EKVX NSCLC): > 25 µM
- TGI (EKVX NSCLC): > 25 µM
- GI50 (SK-MEL-2 melanoma): > 25 µM
- TGI (SK-MEL-2 melanoma): > 25 µM
- GI50 (M14 melanoma): > 25 µM
- TGI (M14 melanoma): > 25 µM
- GI50 (COLO 205 colon): > 25 µM
- TGI (COLO 205 colon): > 25 µM
- GI50 (A549 NSCLC): > 25 µM
- TGI (A549 NSCLC): > 25 µM
- GI50 (HCC-2998 colon): > 25 µM
- TGI (HCC-2998 colon): > 25 µM
- GI50 (OVCAR-4 ovarian): > 25 µM
- TGI (OVCAR-4 ovarian): > 25 µM
- GI50 (MDA-MB-435): > 25 µM
- TGI (MDA-MB-435): > 25 µM
- GI50 (NCI-H226 lung): > 25 µM
- TGI (NCI-H226 lung): > 25 µM
- GI50 (MDA-MB-231 breast): > 25 µM
- TGI (MDA-MB-231 breast): > 25 µM
- GI50 (OVCAR-5 ovarian): > 25 µM
- TGI (OVCAR-5 ovarian): > 25 µM
- GI50 (SF-539 CNS): > 25 µM
- TGI (SF-539 CNS): > 25 µM
- GI50 (A498 renal): > 15.6 µM
- TGI (A498 renal): > 25 µM
